Assay results as given in publication PMC11945486, “TAS1R2/TAS1R3 Single-Nucleotide Polymorphisms Affect Sweet Taste Receptor Activation by Sweeteners: The SWEET Project” (Nutrients, 2025).
Where two headings read alike, the source gives them in different places. Values belong to the molecule of their own block, whether it stands above or below them. No end group written: not given here.

Biological target: T1, human TAS1R2-WT/TAS1R3-G367C (Homo sapiens, UniProt Q7RTX0+Q8TE23, G367C)
T1 construct: expressed in transfected cells; host or cells: HEK293T stably expressing Gα16gust44
T1 sequence (Q8TE23 20-839): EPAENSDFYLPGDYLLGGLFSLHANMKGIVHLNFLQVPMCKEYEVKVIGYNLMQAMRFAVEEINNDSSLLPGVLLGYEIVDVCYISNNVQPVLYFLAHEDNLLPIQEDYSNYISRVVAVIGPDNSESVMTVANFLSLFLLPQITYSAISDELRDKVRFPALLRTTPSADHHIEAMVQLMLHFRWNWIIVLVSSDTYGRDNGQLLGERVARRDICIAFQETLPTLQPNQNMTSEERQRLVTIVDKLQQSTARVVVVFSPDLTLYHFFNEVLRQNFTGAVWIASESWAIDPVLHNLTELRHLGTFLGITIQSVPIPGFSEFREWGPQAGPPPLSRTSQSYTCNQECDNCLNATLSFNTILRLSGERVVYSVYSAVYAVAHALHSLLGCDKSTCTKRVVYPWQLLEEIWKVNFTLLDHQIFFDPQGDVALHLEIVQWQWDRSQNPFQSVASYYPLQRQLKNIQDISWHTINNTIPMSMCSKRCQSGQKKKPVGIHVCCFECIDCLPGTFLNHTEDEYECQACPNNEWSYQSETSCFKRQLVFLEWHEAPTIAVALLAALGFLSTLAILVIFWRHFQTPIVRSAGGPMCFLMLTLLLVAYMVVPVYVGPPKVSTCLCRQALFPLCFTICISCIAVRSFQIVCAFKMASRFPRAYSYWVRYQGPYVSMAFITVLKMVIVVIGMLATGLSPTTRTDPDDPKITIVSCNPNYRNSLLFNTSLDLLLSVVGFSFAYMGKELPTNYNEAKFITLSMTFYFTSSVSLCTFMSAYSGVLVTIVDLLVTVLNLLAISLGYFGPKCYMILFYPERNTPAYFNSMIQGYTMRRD
T1 sequence (Q7RTX0 21-852 G367C): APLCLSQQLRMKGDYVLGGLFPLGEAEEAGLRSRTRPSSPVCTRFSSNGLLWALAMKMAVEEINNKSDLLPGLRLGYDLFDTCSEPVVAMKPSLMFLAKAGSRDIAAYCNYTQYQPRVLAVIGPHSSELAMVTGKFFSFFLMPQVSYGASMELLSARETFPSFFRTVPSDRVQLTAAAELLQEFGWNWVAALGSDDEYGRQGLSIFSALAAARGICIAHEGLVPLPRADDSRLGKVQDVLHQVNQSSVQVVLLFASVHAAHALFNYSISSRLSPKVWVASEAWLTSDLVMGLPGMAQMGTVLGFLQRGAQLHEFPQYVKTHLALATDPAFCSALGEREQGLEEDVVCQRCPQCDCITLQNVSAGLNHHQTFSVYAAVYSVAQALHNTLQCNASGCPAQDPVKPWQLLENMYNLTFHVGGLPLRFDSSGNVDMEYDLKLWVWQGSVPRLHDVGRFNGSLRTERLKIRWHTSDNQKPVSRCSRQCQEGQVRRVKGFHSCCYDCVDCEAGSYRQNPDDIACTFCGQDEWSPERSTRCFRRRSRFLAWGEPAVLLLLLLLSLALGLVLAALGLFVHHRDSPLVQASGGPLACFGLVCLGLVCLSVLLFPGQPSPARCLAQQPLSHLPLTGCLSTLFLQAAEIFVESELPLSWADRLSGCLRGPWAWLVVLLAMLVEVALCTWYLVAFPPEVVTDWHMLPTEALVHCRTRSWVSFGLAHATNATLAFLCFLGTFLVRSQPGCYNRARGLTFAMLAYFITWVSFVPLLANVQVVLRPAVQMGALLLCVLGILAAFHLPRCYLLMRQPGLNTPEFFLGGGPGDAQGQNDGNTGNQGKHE
Assay: Calcium mobilisation assay, TAS1R2-WT with TAS1R3 variant G367C
Assay type: cell-based
Details: for Max ΔF/F0: maximal signal amplitude
Text: The coding sequences for TAS1R2 and TAS1R3 were commercially synthesised, and the human codon was optimised for expression in human cells. The coding sequences of human TAS1R2 and TAS1R3 were subcloned and inserted into the mammalian expression vectors pcDNA6/myc-HisA and pcDNA4/myc-HisA (Invitrogen; Thermo Fisher Scientific; Illkirch, France) between the EcoRI and NotI restriction sites, generating the plasmids pcDNA6-TAS1R2 and pcDNA4-TAS1R3, respectively. To increase protein expression in mammalian cells, an upstream start codon was used, which was a sequence called MAX, corresponding to the QBI SP163 element also described in pcDNA4-HisMax (Invitrogen; Thermo Fisher Scientific; Illkirch, France). To measure the expression level of the receptor by immunohistochemistry, we used the FLAG sequence ([…]) in the C-terminal position, which encodes the FLAG tag epitope. SNP variants of TAS1R2 and TAS1R3 were constructed based on […], respectively, using site-directed mutagenesis (Genewiz; Leipzig, Germany).
The HEK293T cells were kindly provided by Jay P. Slack (Givaudan Flavors Corporation; Cincinnati, OH, USA). HEK293T cells stably transfected with Gα16gust44 [43, 67] were seeded in poly-D-lysine-coated clear-bottom black 96-well plates (0.35 × 10^5 cells/well) in high-glucose DMEM supplemented with 2 mM GlutaMAX, 10% dialysed foetal bovine serum with penicillin/streptomycin and G418 (400 μg/mL) at 37 °C and 6.3% CO2 in a humidified atmosphere as previously reported. […] As a negative control, HEK293T cells were mock-transfected with the empty expression vector. After a further 24 h of incubation, the HEK293T cells were washed with C1 buffer (130 mM NaCl, 5 mM KCl, 10 mM HEPES pH 7.4 and 2 mM CaCl2). The 96-well plates containing the cells were then stimulated with sweet-tasting compounds. […] Different concentration ranges were tested depending on the sweet compound injected. The Ca^2+ changes were expressed as fractional changes in fluorescent light intensity: ΔF/F = (F − F0)/F0, where F was the fluorescent light intensity at each point, and F0 was the value of emitted fluorescent light prior to stimulus application. To calculate dose–response relationships, the changes in fluorescence upon stimulus application were averaged, mock-subtracted and baseline-corrected. The dose–response data obtained were adjusted using a 4-parameter logistic equation. The half-maximal effective concentrations (EC50 values) and maximal signal amplitudes were calculated using SigmaPlot software (version 15.0) (Systat Software; San Jose, CA, USA).
For in vitro calcium mobilisation assay performed on hTAS1R2-SNPs, hTAS1R3-SNPs and mTAS1R3-I60T, 6 to 7 concentrations were tested for each sweet compound, plus buffer alone. All concentration–receptor combinations were measured in duplicate, and each experiment was repeated at least 4 times (8 wells/concentration). Results were expressed for each concentration as ΔF/F mean ± SEM and represented as dose–response curves.

Molecule: CC1=CC(=O)NS(=O)(=O)O1 [Acesulfame K, acesulfame K]
- R1 = Variant EC50/WT EC50: 0.7
- Max ΔF/F0: 0.06 ± 0.01
- EC50 (read-out: EC50): 443 ± 121 µM

Molecule: O=S(=O)(O)NC1CCCCC1 [Cyclamate, cyclamate]
- EC50 (read-out: EC50): 2120 ± 34 µM

Molecule: C[C@H](CC[C@@H](O[C@@H]1O[C@H](CO[C@@H]2O[C@H](CO)[C@@H](O)[C@H](O)[C@H]2O)[C@@H](O)[C@H](O)[C@H]1O[C@@H]1O[C@H](CO)[C@@H](O)[C@H](O)[C@H]1O)C(C)(C)O)[C@H]1CC[C@@]2(C)[C@@H]3CC=C4[C@@H](CC[C@H](O[C@@H]5O[C@H](CO[C@@H]6O[C@H](CO)[C@@H](O)[C@H](O)[C@H]6O)[C@@H](O)[C@H](O)[C@H]5O)C4(C)C)[C@]3(C)[C@H](O)C[C@]12C [Mogroside V, mogroside V]
- R1 = Variant EC50/WT EC50: 2.6
- Max ΔF/F0: 0.60 ± 0.02
- EC50 (read-out: EC50): 82.4 ± 5.2 µM

Molecule: COc1ccc(CCC(=O)c2c(O)cc(O[C@@H]3O[C@H](CO)[C@@H](O)[C@H](O)[C@H]3O[C@@H]3O[C@@H](C)[C@H](O)[C@@H](O)[C@H]3O)cc2O)cc1O [NHDC, neohesperidin dihydrochalcone]
- R1 = Variant EC50/WT EC50: 1.6
- Max ΔF/F0: 0.75 ± 0.05
- EC50 (read-out: EC50): 81.3 ± 13.1 µM

Molecule: COC(=O)[C@H](Cc1ccccc1)NC(=O)[C@H](CC(=O)O)NCCC(C)(C)C [Neotame]
- R1 = Variant EC50/WT EC50: 1.6
- Max ΔF/F0: 0.31 ± 0.01
- EC50 (read-out: EC50): 1.95 ± 0.09 µM

Molecule: C=C(C)[C@@H]1CC=C(/C=N/O)CC1 [Perillartine, perillartine]
- R1 = Variant EC50/WT EC50: 2.3
- Max ΔF/F0: 1.49 ± 0.24
- EC50 (read-out: EC50): 32 ± 17.1 µM

Next, values leading:

- R1 = Variant EC50/WT EC50: 1.2
- Max ΔF/F0: 0.35 ± 0.01
- EC50 (read-out: EC50): 47.3 ± 1.9 µM
Molecule: C=C1C[C@@]23CC[C@H]4[C@@](C)(CCC[C@@]4(C)C(=O)O[C@@H]4O[C@H](CO)[C@@H](O)[C@H](O[C@@H]5O[C@H](CO)[C@@H](O)[C@H](O)[C@H]5O)[C@H]4O[C@@H]4O[C@H](CO)[C@@H](O)[C@H](O)[C@H]4O)[C@@H]2CC[C@]1(O[C@@H]1O[C@H](CO)[C@@H](O)[C@H](O[C@@H]2O[C@H](CO)[C@@H](O)[C@H](O)[C@H]2O)[C@H]1O[C@@H]1O[C@H](CO)[C@@H](O)[C@H](O)[C@H]1O)C3 [Rebaudioside M, rebaudioside M]

- R1 = Variant EC50/WT EC50: 1.7
- Max ΔF/F0: 0.32 ± 0.01
- EC50 (read-out: EC50): 182 ± 7 µM
Molecule: OC[C@H]1O[C@H](O[C@]2(CCl)O[C@H](CCl)[C@@H](O)[C@@H]2O)[C@H](O)[C@@H](O)[C@H]1Cl [Sucralose]

- R1 = Variant EC50/WT EC50: 1.6
- EC50 (brazzein): 181.7 ± 6.9 µg/mL
- Max ΔF/F0: 0.72 ± 0.01
Molecule: brazzein (QDKCKKVYENYPVSKCQLANQCNYDCKLDKHARSGECFYDEKRNLQCICDYCEY; ends and bridges not checked; cysteine pairing not given here; UniProt P56552 1-54, looked up) [sweet-tasting protein obtained by recombinant production using the yeast Pichia pastoris]

- R1 = Variant EC50/WT EC50: 1.4
- Max ΔF/F0: 0.52 ± 0.01
Molecule: thaumatin

- EC50 (read-out: EC50): 14.8 ± 0.5 µM
B1: thaumatin (protein)
chain: ATFEIVNRCSYTVWAAASKGDAALDAGGRQLNSGESWTINVEPGTKGGKIWARTDCYFDDSGSGICKTGDCGGLLRCKRFGRPPTTLAEFSLNQYGKDYIDISNIKGFNVPMDFSPTTRGCRGVRCAADIVGQCPAKLKAPGGGCNDACTVFQTSEYCCTTGKCGPTEYSRFFKRLCPDAFSYVLDKPTTVTCPGSSNYRVTFCPTA
modifications: Eight disulfides
notes: sweet-tasting plant protein, E957
